The assay relates to MC38 cells. Put plainly: RNA-seq analysis of RNA splicing patterns in MC38 cells. In kind it is cell-based, murine. On the procedure:
[FIG. 4-1] FIG. 4. Identification of Compound 1-inducible splice-neoantigen candidates using RNA-seq analysis. A: A diagram of enhanced tumor immunity through compound 1-induced splice-neoantigens. B: A scheme for the screening of Compound 1-induced splice-neoantigen candidates through transcriptome analysis and prediction for MHC class I presentation. RNA-seq was conducted for MC38 cells treated with 10 μM Compound 1 or 0.1% DMSO for 6 hours in three biological replicates each. RNA-seq analysis was performed as detailed in the “Experimental Methods” section.
Aberrant selective splicing events in cancer cells may become a source of potential neoantigens. As it was confirmed that MHC class I in cancer cells is indispensable for the antitumor effects of Compound 1, Compound 1 was predicted to alter aberrant alternative splicing events and enhance the production of splice-neoantigens (FIG. 4-1A). To validate this concept, RNA-seq analysis was performed to assess RNA splicing patterns affected by Compound 1 in MC38 cells and splice products yielding potential neoantigens capable of binding to MHC class I (FIG. 4-1B). […] Next, to identify neoepitopes translating potential splice-neoantigens, splicing events elicited by Compound 1 that created abnormal coding sequences were extracted, and subsequently, whether these events create abnormal peptides were checked by comparing them with a reference peptide database.
With this approach, 169 Compound 1-induced non-annotated splice events for 130 genes were identified as neoantigen candidates, which were further subjected to prioritization based on the prediction scores for the binding affinity of each peptide to MHC class I alleles (H2-K^b and H2-D^b) with NetMHCpan4.1, the extents of splice rates, and mRNA expression (FIG. 4-2C).
RNA-Seq libraries were prepared using a TruSeq Stranded mRNA Library Kit (Illumina, San Diego, CA) and used for paired-end sequencing on an Illumina NovaSeq 6000 platform. RNA-seq data were mapped to the GRCm38 (mm10) genome sequence using HISAT2 program version 2.2.0 with the “--rna-strandness RF” option. Splice-junction information available from Ensembl gene annotation version 100 was used in this process. Mapped results were discarded when either of the paired reads was not mapped to the genome, or the relationships of mapping positions were abnormal.
For splicing analysis, rMATS program version 4.1.0 was used. For the reference transcript models used in the rMATS analysis, a set of new transcripts based on RNA-seq data was constructed using Cufflinks program version 2.2.1. Because the rMATS program skips soft-clipped reads and reads having indels in their alignment, bam files were modified to replace soft clipping and indel information as not changing the splice position information. After rMATS analysis, altered splicing events were extracted according to the following criteria: FDR<0.01, dPSI≥5.0, and average number of spliced reads≥15 in either of the samples.
Spliced regions were compared with Ensembl gene annotations for describing the amino acid sequence encoded in these regions. Amino acid sequences not observed in the original peptide database were searched and stored with seven amino acids margins from known sequences.

Take `Clc1nc(NCc2ccco2)c2[nH]cnc2n1` [Compound 1]: the “exonization induced in neurofibromin 1 (Nf1)” value stood at 108 bp. Moreover, where the note is “10 μM, 6 hours”, the “genes with induced non-annotated splice events” value came out at 130 and the “induced non-annotated splice events identified as neoantigen candidates” value turned out to be 169. The “mRNA expression and splicing patterns of H2-K^b and PD-L1” value (RNA-seq data) is “not significantly altered”. Moreover, the “mRNA expression of genes encoding conventional neoantigens” value (data not shown) is “no effect”.
